In ChEMBL document CHEMBL1201862, “PubChem BioAssay data set” (2004):
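These data come from cells grown in 96-well plates and exposed to compound for 48 hours at five concentrations. GI50 is the concentration that inhibits growth by half.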 The source made the active and inactive calls. Cut-off read from the data, not from the text of the source: active = GI50 up to about 1.1 µM and inactive = higher. Non-standard residues stand in square brackets, D forms with d. Residues, ends and D or L forms follow the SMILES beside them. ξ: configuration not given here. *: point of attachment. ξHyp = O=C(O)C1CC(O)CN1; Cbz = O=C(OCc1ccccc1)*

What was measured:
Assay in all cases: NCI-60 cell line screen, 48 h
UACC-257 = test system: UACC-257
Malme-3M = test system: Malme-3M
UO-31 = test system: UO-31
NCI-H522 = test system: NCI-H522
NCI-H460 = test system: NCI-H460
TK-10 = test system: TK-10
RXF 393 = test system: RXF 393
SK-MEL-2 = test system: SK-MEL-2
OVCAR-3 = test system: OVCAR-3
SF-295 = test system: SF-295
SN12C = test system: SN12C
MOLT-4 = test system: MOLT-4
SF-268 = test system: SF-268
KM12 = test system: KM12
A549 = test system: A549
RPMI-8226 = test system: RPMI-8226
HT-29 = test system: HT-29
ACHN = test system: ACHN
CCRF-CEM = test system: CCRF-CEM
CAKI-1 = test system: CAKI-1

Measured: GI50

NC(=O)CNC(=O)C1CC(O)CN1C(=O)OCc1ccccc1 (stereo not given) (Cbz-[ξHyp]-Gly-NH2)
inactive: UACC-257 > 100 µM | Malme-3M > 100 µM | UO-31 > 100 µM | NCI-H522 > 100 µM | NCI-H460 > 100 µM | TK-10 > 100 µM | RXF 393 > 100 µM | SK-MEL-2 > 100 µM | OVCAR-3 > 100 µM | SF-295 > 100 µM | SN12C > 100 µM | MOLT-4 > 100 µM | SF-268 74.6 µM | KM12 > 100 µM | A549 > 100 µM | RPMI-8226 > 100 µM | HT-29 > 100 µM | ACHN > 100 µM | CCRF-CEM > 100 µM

O=C(O)CCSC(=S)Nc1cccc(F)c1
inactive: UACC-257 22.3 µM | Malme-3M 48.6 µM | UO-31 > 100 µM | NCI-H460 83.9 µM | TK-10 43.4 µM | RXF 393 30.5 µM | OVCAR-3 33.7 µM | SF-295 28.7 µM | SN12C 60.8 µM | MOLT-4 30 µM | SF-268 45.6 µM | KM12 42.1 µM | A549 77.4 µM | RPMI-8226 31.6 µM | HT-29 80 µM | ACHN 23.8 µM | CAKI-1 77.3 µM

CCOC(C)OC1CC(n2cc(C)c(=O)[nH]c2=O)OC1CO (stereo not given)
inactive: UACC-257 > 100 µM | Malme-3M > 100 µM | UO-31 > 100 µM | NCI-H522 > 100 µM | NCI-H460 > 100 µM | TK-10 > 100 µM | RXF 393 > 100 µM | SK-MEL-2 > 100 µM | OVCAR-3 > 100 µM | SF-295 > 100 µM | SN12C > 100 µM | MOLT-4 > 100 µM | SF-268 > 100 µM | KM12 > 100 µM | A549 > 100 µM | RPMI-8226 > 100 µM | HT-29 > 100 µM | ACHN > 100 µM | CCRF-CEM 82.6 µM

C/N=C1\S/C(=N\c2ccc(N(C)C)cc2)N1C
inactive: UACC-257 47.8 µM | Malme-3M 39.9 µM | UO-31 31.6 µM | NCI-H522 25.8 µM | NCI-H460 36.3 µM | TK-10 55.7 µM | SK-MEL-2 33.9 µM | OVCAR-3 39.4 µM | SF-295 40.4 µM | SN12C 31 µM | MOLT-4 43 µM | SF-268 24.9 µM | KM12 57.1 µM | A549 43 µM | RPMI-8226 34.5 µM | HT-29 28.2 µM | CCRF-CEM 36.1 µM

CCn1c(-c2ccccc2)cs/c1=N\C(P(=O)(O)O)P(=O)(O)O
inactive: UACC-257 > 100 µM | Malme-3M > 100 µM | UO-31 > 100 µM | NCI-H522 > 100 µM | NCI-H460 > 100 µM | TK-10 > 100 µM | RXF 393 > 100 µM | OVCAR-3 > 100 µM | SF-295 > 100 µM | MOLT-4 > 100 µM | SF-268 > 100 µM | KM12 > 100 µM | A549 > 100 µM | RPMI-8226 > 100 µM | HT-29 > 100 µM | ACHN > 100 µM | CAKI-1 > 100 µM | CCRF-CEM 2.05 µM

CC(=O)Nc1oc(C)nc1C#N
inactive: UACC-257 > 100 µM | TK-10 > 100 µM | RXF 393 > 100 µM | SK-MEL-2 > 100 µM | SN12C > 100 µM | MOLT-4 > 100 µM | SF-268 > 100 µM | KM12 > 100 µM | A549 > 100 µM | RPMI-8226 > 100 µM | HT-29 > 100 µM | ACHN > 100 µM | CAKI-1 > 100 µM | CCRF-CEM > 100 µM

Cc1cccc(N2C(=O)C3c4[nH]c5ccc(C)cc5c4C4CCC(C(C)(C)C)CC4C3C2=O)c1 (stereo not given)
inactive: UACC-257 46.3 µM | Malme-3M 24.3 µM | UO-31 43.4 µM | NCI-H522 19.9 µM | NCI-H460 13.3 µM | TK-10 24.6 µM | SK-MEL-2 38.1 µM | OVCAR-3 13.6 µM | SF-295 19.4 µM | MOLT-4 8.97 µM | SF-268 15.5 µM | KM12 15.8 µM | A549 15.8 µM | RPMI-8226 15.5 µM | HT-29 21.4 µM | CAKI-1 31.6 µM | CCRF-CEM 21.4 µM

COc1cc(C(C)O)c(S(=O)(=O)CC(C)O)nn1 (stereo not given)
inactive: UACC-257 > 100 µM | Malme-3M > 100 µM | UO-31 > 100 µM | NCI-H522 > 100 µM | NCI-H460 > 100 µM | TK-10 > 100 µM | RXF 393 85.3 µM | OVCAR-3 > 100 µM | SF-295 > 100 µM | SN12C > 100 µM | MOLT-4 77.4 µM | KM12 > 100 µM | A549 > 100 µM | RPMI-8226 43.9 µM | HT-29 > 100 µM | ACHN > 100 µM | CAKI-1 > 100 µM | CCRF-CEM > 100 µM

Cc1[nH]c(=O)[nH]c(=O)c1C(=O)N(CCO)Cc1ccccc1
inactive: UACC-257 34.7 µM | Malme-3M > 100 µM | UO-31 > 100 µM | NCI-H522 > 100 µM | NCI-H460 > 100 µM | TK-10 > 100 µM | RXF 393 30 µM | SK-MEL-2 > 100 µM | OVCAR-3 > 100 µM | SF-295 35.5 µM | SN12C > 100 µM | MOLT-4 > 100 µM | SF-268 > 100 µM | KM12 > 100 µM | RPMI-8226 > 100 µM | HT-29 > 100 µM | ACHN > 100 µM | CCRF-CEM > 100 µM

CCOC(=O)CCc1c(C)c2c(OC(C)=O)cc(OC(C)=O)cc2oc1=O
inactive: UACC-257 38.9 µM | Malme-3M 20.7 µM | UO-31 46.2 µM | NCI-H522 50.4 µM | NCI-H460 32.5 µM | TK-10 > 100 µM | RXF 393 21.4 µM | SK-MEL-2 28.4 µM | OVCAR-3 27.4 µM | SF-295 56.5 µM | SN12C 28.4 µM | SF-268 23.3 µM | KM12 37.4 µM | A549 47.2 µM | HT-29 35.6 µM | ACHN 28.1 µM | CAKI-1 > 100 µM

CC1=C[C@]2(CC(C)C3C(CC4(C)C5CCC6C(C)(C)C(=O)CC[C@@]67C[C@@]57CC[C@]34C)O2)OC1=O (stereo not given in full)
inactive: UACC-257 8.63 µM | Malme-3M 44.4 µM | NCI-H460 19.4 µM | TK-10 26 µM | RXF 393 5.11 µM | SK-MEL-2 34.4 µM | SF-295 25.3 µM | SN12C 41.1 µM | MOLT-4 10.7 µM | SF-268 33.9 µM | KM12 18.9 µM | A549 16.6 µM | RPMI-8226 9.2 µM | HT-29 9.31 µM | ACHN 24.6 µM | CAKI-1 16.9 µM | CCRF-CEM > 100 µM

COc1cc([C@@H]2c3cc4c(c(O[C@@H]5O[C@H]6CO[C@@H](C)O[C@H]6[C@H](O)[C@@H]5O)c3C[C@H]3COC(=O)[C@@H]32)OCO4)cc(OC)c1O
inactive: UACC-257 5.93 µM | Malme-3M > 29.9 µM | UO-31 45.6 µM | NCI-H522 2.54 µM | NCI-H460 12.1 µM | RXF 393 3.64 µM | SK-MEL-2 27.3 µM | OVCAR-3 6.76 µM | SF-295 3.48 µM | SN12C 12.6 µM | MOLT-4 10.6 µM | KM12 8.75 µM | A549 10.9 µM | RPMI-8226 47.5 µM | HT-29 33.7 µM | CCRF-CEM 11.9 µM

CC(/C=N/N=C(N)N)=N\N=C(N)N
inactive: UACC-257 140 µM | Malme-3M 33.9 µM | UO-31 9.82 µM | NCI-H522 29.7 µM | NCI-H460 8.97 µM | TK-10 44.7 µM | RXF 393 32.3 µM | SK-MEL-2 12.8 µM | OVCAR-3 6.11 µM | SF-295 92.3 µM | SN12C 106 µM | MOLT-4 9.25 µM | SF-268 3.56 µM | KM12 2.83 µM | A549 61.9 µM | RPMI-8226 12.1 µM | ACHN 22.8 µM | CCRF-CEM 4.73 µM

C[n+]1c2ccccc2c(C(=O)NC(CCCNC(=N)N)C(=O)O)c2ccccc21 (stereo not given)
inactive: UACC-257 > 100 µM | Malme-3M > 100 µM | UO-31 > 100 µM | NCI-H460 > 100 µM | TK-10 > 100 µM | SK-MEL-2 > 100 µM | OVCAR-3 > 100 µM | SF-295 > 100 µM | SN12C > 100 µM | MOLT-4 > 100 µM | SF-268 > 100 µM | KM12 > 100 µM | A549 > 100 µM | RPMI-8226 > 100 µM | HT-29 > 100 µM | ACHN > 100 µM

N#CCCC1(CCC#N)CCCCCCC(CCC#N)(CCC#N)C(O)C1O (stereo not given)
inactive: UACC-257 > 100 µM | Malme-3M > 100 µM | UO-31 > 100 µM | NCI-H522 > 100 µM | NCI-H460 > 100 µM | TK-10 > 100 µM | RXF 393 > 100 µM | SK-MEL-2 > 100 µM | OVCAR-3 > 100 µM | SF-295 > 100 µM | SN12C 52.2 µM | SF-268 > 100 µM | KM12 > 100 µM | A549 > 100 µM | HT-29 > 100 µM | ACHN > 100 µM | CAKI-1 > 100 µM

O=S(=O)(O)c1cc2ccc1/C=C\c1ccc(cc1S(=O)(=O)O)/N=N\c1ccc(c(S(=O)(=O)O)c1)/C=C\c1ccc(cc1S(=O)(=O)O)/N=N\2
inactive: UACC-257 > 100 µM | Malme-3M > 100 µM | UO-31 > 100 µM | NCI-H522 > 100 µM | NCI-H460 > 100 µM | RXF 393 > 100 µM | SK-MEL-2 > 100 µM | OVCAR-3 > 100 µM | SF-295 > 100 µM | SN12C > 100 µM | MOLT-4 > 100 µM | SF-268 > 100 µM | KM12 > 100 µM | A549 > 100 µM | RPMI-8226 > 100 µM | HT-29 > 100 µM | CCRF-CEM > 100 µM
